Assay results published in patent publication US9452977B2, “Cyclopentylacrylamide derivative” (KYORIN PHARMACEUTICAL CO., LTD., priority 2008, dated 2016).

Target: T1, human hepatic GK (Homo sapiens, UniProt P35557)
T1 construct: His6 (C); made in house; host or cells: E. coli
T1 sequence (P35557 1-466 isoform P35557-2): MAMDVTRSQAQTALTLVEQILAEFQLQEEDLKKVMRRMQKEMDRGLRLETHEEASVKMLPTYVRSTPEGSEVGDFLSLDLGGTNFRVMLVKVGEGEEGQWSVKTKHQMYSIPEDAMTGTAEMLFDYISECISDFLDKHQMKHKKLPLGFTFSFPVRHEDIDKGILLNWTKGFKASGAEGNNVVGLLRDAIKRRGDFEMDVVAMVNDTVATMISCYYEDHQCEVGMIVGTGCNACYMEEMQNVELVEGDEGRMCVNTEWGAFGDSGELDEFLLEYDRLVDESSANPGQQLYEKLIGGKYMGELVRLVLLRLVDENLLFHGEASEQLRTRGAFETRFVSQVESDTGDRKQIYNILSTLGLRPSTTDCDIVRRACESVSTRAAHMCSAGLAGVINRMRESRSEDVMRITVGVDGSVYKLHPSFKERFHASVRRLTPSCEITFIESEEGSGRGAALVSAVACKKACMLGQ
Assay: GK activity measurement (G6PDH-coupled NADH production)
Type: biochemical
Details: GK activation; 5 mM D-glucose
Description: The GK activity was determined not by direct measurement of the amount of glucose-6-phosphate produced by the enzyme reaction but by measurement of the amount of NADH produced by a […] reaction.
(Preparation of Recombinant GK)
Cloning of Human Hepatic GK and Human Pancreas GK and Acquisition of Recombinant Proteins
Based on a human hepatic GK sequence available from GeneBank (Accession Number: NM_033507) and a human pancreas GK sequence (Accession Number: NM_000162), PCR cloning was performed using Pyrobest DNA Polymerase (product of Takara Bio Inc.) with human hepatic cDNA (product of Clontech Laboratories, Inc.) and human pancreas cDNA (product of Clontech Laboratories, Inc.) used as templates. […]
The test compound was dissolved in DMSO in advance, and 2 μL of the prepared solution was added to 20 μL of a solution containing the HEPES buffer solution (pH 7.1), KCl, MgCl2, D-glucose, ATP, NAD, and dithiothreitol. […] The GK was added such that an increase in absorbance per minute in the presence of 5% DMSO was between 0.002 to 0.003. After the reaction was initiated, the increase in absorbance at 340 nm was measured for 15 minutes using a SPECTRAmax 190 microplate spectrophotometer (product of Molecular Devices Corporation), and the activity was evaluated using the increase in the first 10 minutes.

EC50: ≤ 1000 nM
SMILES: CS(=O)(=O)c1ccc(/C(=C\[C@H]2C[C@@H](F)[C@@H](F)C2)C(=O)Nc2nccs2)cc1 [Compound 1A, (E)-3-[(1α,3α,4α)-3,4-difluorocyclopentyl]-2-[4-(methylsulfonyl)phenyl]-N-(thiazol-2-yl)acrylamide]
